{
  "source": "patent US10669312B2",
  "about": "“Peptide for suppressing osteoclast differentiation and use thereof” (CAREGEN CO., LTD., priority 2013, dated 2020)",
  "format_in_all_cases": "cell-based",
  "key": {"TRAP": {"tested_on": "TRAP", "experiment": "TRAP activity in differentiated Raw264.7 cells, absorbance 405 nm", "settings": "10 ng/ml RANKL, 50 ng/ml TNF-α, 1 or 10 μg/ml peptide, five days", "procedure": "Raw264.7 cells were treated in combination with 10 ng/ml RANKL, 50 ng/ml TNF-α, or the 1 or 10 μg/ml peptide synthesized in synthetic example 1 to induce differentiation for five days, and then the inhibition degree of the activity of TRAP, an osteoclast differentiation marker, was tested. After culture, the culture liquid was removed, and then 100 μl of a lysis buffer (20 mM tris buffer, 3% triton X-100) was added to disrupt cell walls. A reaction solution is prepared from 500 μl of a citrate solution (18 mM citric acid, 9 mM sodium chloride, 12 mM surfactant; pH 3.5), 50 μl of a tartrate solution, and 500 μl of a 20 mM phosphate substrate. 100 μl of the lysate and 100 μl of the reaction solution were added in the same amount, and then the reaction was conducted at 37° C. for 30 minutes. For colorimetric analysis, the absorbance was determined at 405 nm using a spectrophotometer. It was validated that, in cases where the treatment with the peptide of SEQ ID NO: 1 or SEQ ID NO: 2 together with RANKL and TNF-α, the peptides inhibited the activity of TRAP, which is an osteoclast differentiation marker, in a concentration-dependent manner (FIGS. 4a and 4b)."}, "osteoprotegerin (OPG)": {"tested_on": "osteoprotegerin (OPG)", "experiment": "Osteoblast differentiation marker mRNA expression (PCR), OPG", "settings": "MC3T3-E1 cells, 10 or 50 μg/ml peptide, two days", "procedure": "(§1) MC3T3-E1 cells were treated with 10 or 50 μg/ml of the peptides synthesized in synthetic example 1 to induce the differentiation for two days, and tests for verifying the mRNA expression of osteoblast differentiation markers, such as osteocalcin (OCN), osteoprotegerin (OPG), bone sialoprotein (BSP), and osteopontin (OPN), were conducted. Target-specific primer sequences used in PCR were as follows: OCN forward primer sequence, [NT] (SEQ ID NO:15) and OCN reverse primer sequence, [NT] (SEQ ID NO:16) (annealing temperature, 60° C.); OPG forward primer sequence, [NT] (SEQ ID NO:17) and OPG reverse primer sequence, [NT] (SEQ ID NO:18) (annealing temperature, 60° C.); BSP forward primer sequence, [NT] (SEQ ID NO:19) and BSP reverse primer sequence, [NT] (SEQ ID NO:20) (annealing temperature, 60° C.); OPN forward primer sequence, [NT] ID NO:21) and OPN reverse primer sequence, [NT] ID NO:22) (annealing temperature, 50° C.). […] Therefore, the peptides of the present invention can promote osteoblast differentiation by increasing the genetic expressions of OCN, OPG, BSP, and OPN, which are osteoblast differentiation markers."}, "pSmad1/5/8": {"tested_on": "pSmad1/5/8", "experiment": "Osteogenic differentiation signal, Smad1/5/8 phosphorylation, western blotting", "settings": "MC3T3-E1 cells, serum-starved 24 hours, 10 μg/ml peptide, 30 minutes", "procedure": "In order to verify whether pSmad1/5/8, which is a signal involved in osteogenic differentiation, was activated by the present peptides, MC3T3-E1 cells were dispensed into 6-well plates at 2×10^5 cells, and then cultured for 24 hours under the conditions of 37° C. and 5% CO2. After 24 hours, the medium was changed with a serum-free medium, and then the cells were starved for 24 hours, treated with the 10 μg/ml peptides or 50 ng/ml BMP2, used as a positive control, for 30 minutes, washed with PBS, and dissolved in a lysis buffer, thereby obtaining proteins, which were then subjected to western blotting."}, "Raw264.7 cells": {"tested_on": "Raw264.7 cells", "experiment": "Osteoclast differentiation inhibition, TRAP staining", "settings": "10 ng/ml RANKL, 50 ng/ml TNF-α, 1 or 10 μg/ml peptide, five days", "procedure": "In order to analyze the IL-3-like action and the inhibitory action of the peptides of SEQ ID NO: 1 and SEQ ID NO: 2, synthesized in synthetic example 1, TRAP staining was conducted using Raw264.7 strain differentiable into osteoclasts while referring to methods, such as tartrate-resistant acid phosphatase staining (Rizzino, et al. Cancer Res. 48:4266(1988)).\nRaw264.7 cell lines (ATCC) were cultured in Dulbecco's modified Eagle's medium (DMEM, Gibco, U.S.A.) supplemented with 10% fetal bovine serum (FBS, Sigma) using each 250 ml-flask for tissue culture. The cultured cell lines were carefully detached from the bottom of the culture container using a pipette, followed by centrifugation, to obtain only cell precipitates. The cell precipitates were re-suspended in DMEM culture medium supplemented with 10% FBS, and then added to a […] for tissue culture plate at 1×10^4 cells per each well. For the induction of differentiation, the blank sample and RAW264.7 cells were treated with 10 ng/ml RANKL, 50 ng/ml TNF-α, and 1 μg/ml or 10 μg/ml synthesized peptides dissolved in 10% distilled water in a sterile state, […] After 72 hours, the medium was changed with the same culture liquid, and then the blank sample and the cells were treated with 10 ng/ml RANKL, 50 ng/ml TNF-α, and 1 μg/ml or 10 μg/ml synthesized peptides, and then cultured under the same conditions for 48 hours. […]"}, "osteopontin (OPN)": {"tested_on": "osteopontin (OPN)", "experiment": "Osteoblast differentiation marker mRNA expression (PCR), OPN", "settings": "MC3T3-E1 cells, 10 or 50 μg/ml peptide, two days", "procedure": "as §1"}, "osteocalcin (OCN)": {"tested_on": "osteocalcin (OCN)", "experiment": "Osteoblast differentiation marker mRNA expression (PCR), OCN", "settings": "MC3T3-E1 cells, 10 or 50 μg/ml peptide, two days", "procedure": "as §1"}, "bone sialoprotein (BSP)": {"tested_on": "bone sialoprotein (BSP)", "experiment": "Osteoblast differentiation marker mRNA expression (PCR), BSP", "settings": "MC3T3-E1 cells, 10 or 50 μg/ml peptide, two days", "procedure": "as §1"}},
  "note": "“Also recorded” adds a separate entry of the source. Ends that are not written are not given here.",
  "data": [
    {"sequence": "NCSNMICEIITH (cysteine pairing not given here) [SEQ ID NO: 1, IL-3-derived synthetic peptide, 12 amino acids]", "values": [
      {"measurement": "activity of TRAP, osteoclast differentiation marker", "setting": "TRAP", "result": "inhibited"},
      {"measurement": "mRNA level of osteoprotegerin (OPG)", "setting": "osteoprotegerin (OPG)", "result": "increased"},
      {"measurement": "phosphorylation of Smad1/5/8", "setting": "pSmad1/5/8", "result": "led to the phosphorylation of Smad1/5/8; also recorded: increased"},
      {"measurement": "RANKL- and TNF-α-induced differentiation of Raw264.7 into osteoclasts", "setting": "Raw264.7 cells", "result": "inhibit"},
      {"measurement": "mRNA level of osteopontin (OPN)", "setting": "osteopontin (OPN)", "result": "increased"},
      {"measurement": "mRNA level of osteocalcin (OCN)", "setting": "osteocalcin (OCN)", "result": "increased"},
      {"measurement": "mRNA level of bone sialoprotein (BSP)", "setting": "bone sialoprotein (BSP)", "result": "increased"}
    ]},
    {"sequence": "RRKLTFYLKTLE [SEQ ID NO: 2, IL-3-derived synthetic peptide, 12 amino acids]", "values": [
      {"measurement": "activity of TRAP, osteoclast differentiation marker", "setting": "TRAP", "result": "inhibited"},
      {"measurement": "mRNA level of osteoprotegerin (OPG)", "setting": "osteoprotegerin (OPG)", "result": "increased"},
      {"measurement": "phosphorylation of Smad1/5/8", "setting": "pSmad1/5/8", "result": "led to the phosphorylation of Smad1/5/8; also recorded: increased"},
      {"measurement": "RANKL- and TNF-α-induced differentiation of Raw264.7 into osteoclasts", "setting": "Raw264.7 cells", "result": "inhibit"},
      {"measurement": "mRNA level of osteopontin (OPN)", "setting": "osteopontin (OPN)", "result": "increased"},
      {"measurement": "mRNA level of osteocalcin (OCN)", "setting": "osteocalcin (OCN)", "result": "increased"},
      {"measurement": "mRNA level of bone sialoprotein (BSP)", "setting": "bone sialoprotein (BSP)", "result": "increased"}
    ]}
  ]
}
